Laboratory results from patent US7598279B2, “Neurotherapeutic azole compounds” (SK Holdings Co., Ltd., priority 2005, dated 2009).

Tests used:
[1] = test system: mice; experiment: Light-Dark Box (LDB) test; format: in vivo
Experimental: Light-Dark Box (LDB) test, one of the unconditioned conflict tests, was used to investigate anxiolytic activity for several drugs such as Diazepam, Buspirone, etc (Allikmets et al, 1996; Belzung and Griebel, 2001; Cutler and Aitken, 1991; Leyre et al, 2004). In the present study, anxiolytic effect of azole compounds containing carbamoyl group represented by general structural formula (IX) was investigated on the LDB test in mice.
The animals were treated with compound 30 min prior to testing. The light-dark box consisted of a plexiglas apparatus measuring 45 cm×27 cm×27 cm (L×W×H), and was partitioned into two compartments, one fully opaque (dark compartment made of black plexiglas: 18 cm of total length of apparatus), while the second was lit from the compartment ceiling by a 100 W bulb. A small opening (7×7 cm) in the partition wall allowed free passage between the light and dark compartments.
Animals were placed at the lit compartment first, and the latency for escape into dark was checked and tested in the LDB for 5 min after the first entering into dark box. The animal, which the latency was over 2 min, was excluded from the test. Total time spent in the light compartment was counted. Movement of animal was checked through the TV-CCD camera by an experienced observer blind to the conditions of the experiment. A mouse whose four paws were in the new box was considered as having changed box.

[2] = test system: mice; experiment: Maximal ElectroShock (MES)-induced tonic seizure test; format: in vivo; settings: for ED50 / responders at 30 mg/kg: Mus musculus; for ED50: read-out: Mice MES ED50 (mpk/peak time); for responders at 30 mg/kg: read-out: Mice MES Protection % (mpk/peak time)
Experimental: The “Maximal ElectroShock (MES)” test is a well-established pharmacological screening method for anticonvulsants against tonic-clonic seizures. The procedure employed in the MES test for anticonvulsants is as follows. The compounds to be tested were dissolved in 30% PEG400 and administered ip and po into animals. After the designated number of hours, maximal electroshock (50 mA, 60 Hz, 0.2 sec) was applied into animals via corneal electrodes using IITC Life Science model 11A Shocker. […] Median efficacy dose (ED50) levels were determined using three different dose levels with at least 8 mice in each group.

[3] = test system: mice; experiment: Pentylenetetrazol (PTZ)-induced clonic seizure test; format: in vivo; settings: for ED50 / responders at 30 mg/kg: Mus musculus; for ED50: sc, read-out: Mice PTZ ED50 (mpk/peak time); for responders at 30 mg/kg: read-out: Mice PTZ Protection % (mpk/peak time)
Experimental: The “Pentylenetetrazol (PTZ)” test for anticonvulsant and antianxiety activity was also carried out.
The procedure employed in the PTZ test is as follows. The compounds to be tested were dissolved in 30% PEG400 and administered ip and po into animals. After the designated number of hours, each animal was injected subcutaneously with 100 mg/kg of PTZ (CD97 dose) and observed for up to 30 minutes for the presence or absence of clonic spasms over 5 seconds. Median efficacy dose (ED50) levels were determined using three different dose levels with 8 mice in each group.

[4] = test system: mice; experiment: Forced swimming test (FST); format: in vivo; settings: 30 min after dosing
Experimental: The “Forced swimming test (FST)” for antidepressant activity was also carried out. The procedure employed in the FST for antidepressant is as follows. The compounds to be tested were dissolved in 30% PEG400 and administered ip and po into animals. 30 min later, the immobility time during post 4 minutes of 6 minutes experiment time was measured.

[5] = test system: TBPS site of GABA-A receptor; experiment: GABA-A receptor (TBPS site) binding assay, [35S]TBPS; settings: rat brain membranes, 2 nM [35S]TBPS
Experimental: Compounds of the inventions were tested for specific binding to TBPS (t-butyl bicyclophosphorothionate) site, an allosteric modulator site of GABA-A receptor as modified from G. Maksay and M. Simonyi, Eur. J. Pharmacol. 1985, 117(2), 275. and Gee, K. W. et al., J. Pharm. Exp. Ther. 1988, 246, 803.
This binding assay was performed using [35S] TBPS as radioligand in washed crude membrane homogenate from rat brains. Membrane preparations were carried out according to procedure described below. Sprague-Dawley (SD) rat weighting 230 g were killed by decapitation and their whole brains were rapidly removed and its cerebellums were excluded. The dissected brains were homogenized for 30 sec in 10 volumes (W/V) of ice-cold 0.32 M Sucrose and 50 mM Tris-citrate buffer pH 7.4 using glass homogenate. The homogenate was centrifuged at 2,000×g for 5 min at 4° C. And the supernatant re-centrifuged at 50,000×g for 20 min at 4° C. The supernatant was discarded and the resulting pellets were resuspended in 10 volumes (W/V) of ice-cold 50 mM Tris-citrate buffer pH 7.4. And then the suspended pellet was centrifuged at 50,000×g for 20 min at 4° C. The resulting pellets were suspended again in 32 volumes (W/V) of ice-cold 50 mM Tris-citrate buffer pH 7.4 with 0.05% Triton X-100 and then incubated in 37° C. for 60 min using a water bath. The incubated suspension was centrifuged at 50,000×g for 20 min at 4° C. Resuspending and centrifugation step of the remained pellets were repeated twice at the same manner and final pellets were resuspended in 10 volumes (W/V) of ice-cold 50 mM Tris-citrate buffer pH 7.4 to enable distribution of 2 ml aliquot in microcentrifuge tube, which were used immediately or kept at −80° C. for no more than 1 month before use.
For TBPS site binding assay, 50 μl of the tested compound were added to 100 μg membrane protein suspended in 0.15 ml of 50 mM Tris-citrate buffer with 200 mM NaCl pH 7.4 in presence of 2 nM of [35S] TBPS. The incubation of mixtures were carried out for 1.5 hours at 25° C. and then rapidly filtered over Whatman GF/C glass fiber filters, followed by twice 4.5 ml rinses with ice-cold incubation buffer. The filters were placed in counting vials and 4 ml scintillation solution. The vials were counted in a Beckman scintillation counter. Non-specific binding was determined in parallel incubations with 100 μM picrotoxin.
IC50 values for TBPS site binding assay was calculated using Graphpad PRISM v.3.00.

[6] = treated 30 min prior to testing, dose not given

Row | SMILES | Mice LDB % Duration in the light box [1, 6] | ED50 ([2]; 0.5 h) [mg/kg] | Mice FST Reduction of immobility % [4] | Mice FST Reduction of immobility % ([4]; dose not given) [%] | TBPS Inhibition % (At 100 μM) [5] [%] | ED50 ([3]; 1 h) [mg/kg] | further results
1 | NC(=O)OC(Cn1ncnn1)c1ccccc1Cl (stereo not shown) [Example 2, Carbamic acid 1-(2-chloro-phenyl)-2-tetrazol-2-yl-ethyl ester] | 180%^ | 8.6 | N.S |  |  |  | ED50 ([3]; 0.5 h): 5.9 mg/kg
2 | NC(=O)O[C@@H](Cn1nccn1)c1ccccc1Cl [Example 33, Carbamic acid (R)-1-(2-chloro-phenyl)-2-[1,2,3]triazol-2-yl-ethyl ester] |  | 9.72 |  | 26.2 |  |  | Mice LDB % Duration in the light box ([1]; treated 30 min prior to testing): N.S; ED50 ([3]; 0.5 h): 8.18 mg/kg
3 | CC(C(OC(N)=O)c1ccc(Cl)c(Cl)c1)n1ncnn1 (stereo not shown) [Example 80, Carbamic acid 1-(3,4-dichloro-phenyl)-2-tetrazol-2-yl-propyl ester] |  |  |  | 50.6 | 64.8 |  | responders at 30 mg/kg ([2]; 4 h): 33.3%
4 | NC(=O)O[C@@H](Cn1nccn1)c1ccc(Cl)cc1 [Example 86, Carbamic acid (R)-1-(4-chloro-phenyl)-2-[1,2,3]triazol-2-yl-ethyl ester] |  | 21.4 | N.S |  | 18.9 |  | 
5 | NC(=O)O[C@@H](Cn1ncnn1)c1ccc(Cl)c(Cl)c1 [Example 88, Carbamic acid (R)-1-(3,4-dichloro-phenyl)-2-tetrazol-2-yl-ethyl ester] |  | 19.1 |  | 88.4 | 52.8 |  | 
6 | NC(=O)OC(Cn1ncnn1)c1cc(Cl)ccc1Cl (stereo not shown) [Example 89, Carbamic acid 1-(2,5-dichloro-phenyl)-2-tetrazol-2-yl-ethyl ester] | 167.4% ^ |  | N.S |  | 27.6 | 14.5 | ED50 ([2]; 1 h): 6.15 mg/kg
7 | NC(=O)OC(Cn1ncnn1)c1c(Cl)cccc1Cl (stereo not shown) [Example 98, Carbamic acid 1-(2,6-dichloro-phenyl)-2-tetrazol-2-yl-ethyl ester] |  | 6.03 |  | 31.5 | 29.9 |  | ED50 ([3]; 0.5 h): 11.6 mg/kg
8 | NC(=O)OC(Cn1nccn1)c1c(Cl)cccc1Cl (stereo not shown) [Example 99, Carbamic acid 1-(2,6-dichloro-phenyl)-2-[1,2,3]triazol-2-yl-ethyl ester] |  | 11.6 | N.S |  | 23.6 |  | responders at 30 mg/kg ([3]; 2 h): 100%
9 | NC(=O)O[C@@H](Cn1ncnn1)c1ccc(Cl)cc1Cl [Example 103, Carbamic acid (R)-1-(2,4-dichloro-phenyl)-2-tetrazol-2-yl-ethyl ester] | 277.8% ^ |  | N.S |  |  | 5.14 | ED50 ([2]; 1 h): 19.2 mg/kg; IC50 [5]: 13.4 µM
10 | NC(=O)O[C@H](Cn1ncnn1)c1ccc(Cl)cc1Cl [Example 113, Carbamic acid (S)-1-(2,4-dichloro-phenyl)-2-tetrazol-2-yl-ethyl ester] | −172% ^ |  | N.S |  |  | 20.7 | ED50 ([2]; 1 h): 13 mg/kg
11 | NC(=O)O[C@H](Cn1nccn1)c1ccc(Cl)cc1Cl [Example 114, Carbamic acid (S)-1-(2,4-dichloro-phenyl)-2-[1,2,3]triazol-2-yl-ethyl ester] | 172.5% ^ |  | N.S |  |  | 16.9 | ED50 ([2]; 1 h): 33.9 mg/kg; IC50 [5]: 107 µM
12 | NC(=O)O[C@@H](Cn1nccn1)c1ccc(Cl)cc1Cl [Example 115, Carbamic acid (R)-1-(2,4-dichloro-phenyl)-2-[1,2,3]triazol-2-yl-ethyl ester] |  |  | N.S |  |  | 8.43 | Mice LDB % Duration in the light box ([1]; 10 mpk, ip): 245%^; ED50 ([2]; 0.25 h): 12.7 mg/kg; IC50 [5]: 4.3 µM
13 | NC(=O)NC(=O)OC(Cn1ncnn1)c1ccccc1Cl (stereo not shown) [Example 129, O-1-(2-Chloro-phenyl)-2-tetrazol-2-yl ethyl allophanate] |  |  | N.S |  | 5.6 |  | Mice MES ED50 (mpk/peak time) ([2]; mice, peak time 0.5 hr): 13.7/0.5 hr mpk; Mice PTZ Protection % (mpk/peak time) ([3]; 3 mice, 30 mpk, 1 hr): 100% (30/1 hr)
14 | O=C(OC(Cn1ncnn1)c1ccccc1Cl)N1CCC(Cc2ccccc2)CC1 (stereo not shown) [Example 138, 4-Benzyl-piperidine-1-carboxylic acid 1-(2-chloro-phenyl)-2-tetrazol-2-yl-ethyl ester] |  |  |  | 35.9 | 49.6 |  | responders at 30 mg/kg ([2]; 2 h): 100%; responders at 30 mg/kg ([3]; 4 h): 66.7%
15 | NC(=O)OC(COc1ccc(Cl)c(Cl)c1)Cn1ncnn1 (stereo not shown) [Example 148, Carbamic acid 2-(3,4-dichloro-phenoxy)-1-tetrazol-2-ylmethyl-ethyl ester] |  |  | N.S |  | 76.1 |  | responders at 30 mg/kg ([2]; 0.5 h): 100%; responders at 30 mg/kg ([3]; 4 h): 66.7%
